{"source": "patent US20240000885A1", "about": "(VANDERBILT UNIVERSITY, published 2024)", "molecules": {"B1": {"name": "MHV M tail with deletion of the terminal 2 amino acids (other)", "chain": "SIRLFIRTGSWWSFNPETNNLMCIDMKGTVYVRPIIEDYHTLTATIIRGHLYMQGVKLGTGFSLSDLPAYVTVAKVSHLCTYKRAFLDKVDGVSGFAVYVKSKVGNYRLPSNKPSGADTALL"}}, "key": {"[1]": {"molecular_target": "interaction of MHV M tail with MYO5B(ABCDE) (UniProt P03415+Q9ULV0)", "assay_type": "cell-based, Mouse Hepatitis Virus (MHV)"}, "[2]": {"molecular_target": "interaction of MHV M-GFP with Cherry-MYO5B+D tail (902T) in A549 cells (UniProt P03415+Q9ULV0)", "sequence (Q9ULV0 902-1848, one chain of several)": "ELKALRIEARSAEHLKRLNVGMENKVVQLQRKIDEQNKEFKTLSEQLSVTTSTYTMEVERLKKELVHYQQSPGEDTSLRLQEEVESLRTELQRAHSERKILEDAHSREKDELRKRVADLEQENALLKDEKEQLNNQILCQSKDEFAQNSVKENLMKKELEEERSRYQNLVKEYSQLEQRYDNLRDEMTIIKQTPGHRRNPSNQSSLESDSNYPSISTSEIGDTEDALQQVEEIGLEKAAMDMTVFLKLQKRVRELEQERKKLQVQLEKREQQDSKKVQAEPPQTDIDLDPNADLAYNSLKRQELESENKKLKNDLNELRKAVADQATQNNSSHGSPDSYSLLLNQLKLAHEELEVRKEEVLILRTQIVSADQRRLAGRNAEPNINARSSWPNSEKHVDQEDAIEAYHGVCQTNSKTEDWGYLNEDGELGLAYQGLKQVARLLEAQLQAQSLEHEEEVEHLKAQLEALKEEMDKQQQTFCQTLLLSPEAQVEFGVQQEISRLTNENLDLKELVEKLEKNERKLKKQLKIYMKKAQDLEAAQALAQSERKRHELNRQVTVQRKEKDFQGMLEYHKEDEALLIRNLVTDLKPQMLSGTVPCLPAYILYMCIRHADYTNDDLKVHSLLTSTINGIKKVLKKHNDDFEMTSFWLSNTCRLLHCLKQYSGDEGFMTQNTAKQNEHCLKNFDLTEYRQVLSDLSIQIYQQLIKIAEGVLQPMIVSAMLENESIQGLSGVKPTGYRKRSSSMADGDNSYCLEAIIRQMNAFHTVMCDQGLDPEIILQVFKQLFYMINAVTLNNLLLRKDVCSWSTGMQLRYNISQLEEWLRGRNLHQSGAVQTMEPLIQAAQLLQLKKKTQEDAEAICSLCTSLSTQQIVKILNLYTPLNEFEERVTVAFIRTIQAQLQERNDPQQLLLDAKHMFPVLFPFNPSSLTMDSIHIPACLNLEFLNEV", "assay_type": "cell-based, human"}, "[3]": {"molecular_target": "T1, pAD-MYO5B(ABCDE) (human, UniProt Q9ULV0 1235-1439)", "T1 construct": "also called MYO5B ABCDE exons; construct containing just the ABCDE exons", "T1 sequence": "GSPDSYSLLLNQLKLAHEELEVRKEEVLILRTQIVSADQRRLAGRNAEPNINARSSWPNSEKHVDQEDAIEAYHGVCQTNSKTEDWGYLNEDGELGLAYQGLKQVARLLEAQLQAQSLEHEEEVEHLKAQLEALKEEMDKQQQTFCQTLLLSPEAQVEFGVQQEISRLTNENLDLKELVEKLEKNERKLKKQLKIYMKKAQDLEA", "experiment": "binary yeast 2-hybrid"}}, "note": "Where two headings read alike, the source gives them in different places."}
{"molecule": "CN1Cc2c(N)cccc2C(c2ccccc2)C1", "note": "(centres unmarked) [Nomifensine]", "values": [{"measurement": "identified as hit in initial yeast 2-hybrid screen (loss of b-galactosidase activity)", "setting": "[1]; 10 μM, 24 hours", "value": "hits"}, {"measurement": "inhibition of the interaction between MHV M and MYO5B+D", "setting": "[2]", "value": "did not alter the interaction"}]}
{"molecule": "CNC(=C[N+](=O)[O-])NCCSCc1csc(CN(C)C)n1", "note": "[Nizatidine]", "values": [{"measurement": "identified as hit in initial yeast 2-hybrid screen (loss of b-galactosidase activity)", "setting": "[1]", "value": "hits"}, {"measurement": "effect on colocalization of MHV M-GFP with ch-MYO5B+D 902 Tail", "setting": "[2]", "value": "disrupts the colocalization"}, {"measurement": "inhibition of the interaction between MHV M and MYO5B+D", "setting": "[2]", "value": "showed inhibition"}, {"measurement": "lowest concentration causing loss of localization between MHV M and MYO5B+D", "setting": "[2]", "value": 10, "unit": "pM"}, {"measurement": "lowest concentration that disrupted co-localization of MHV M-GFP and Cherry-MYO5B+D tail", "setting": "[2]", "value": 100, "unit": "µM"}, {"measurement": "lowest dose that disrupted co-localization of MHV M with MYO5B+D", "setting": "[2]", "value": 100, "unit": "pM"}]}
{"molecule": "NC(N)=Nc1nc(CSCCC(N)=NS(N)(=O)=O)cs1", "note": "[Famotidine]", "values": [{"measurement": "effect on the co-localization of MHV M with MYO5B+D", "setting": "[2]", "value": "no effect"}]}
{"molecule": "CN/C(=N/CCSCc1nc[nH]c1C)NC#N", "note": "[Cimetidine]", "values": [{"measurement": "effect on the co-localization of MHV M with MYO5B+D", "setting": "[2]", "value": "no effect"}]}
{"molecule": "CS(=O)(=O)Nc1ccc([N+](=O)[O-])cc1Oc1ccccc1", "note": "[Nimesulide]", "values": [{"measurement": "identified as hit in initial yeast 2-hybrid screen (loss of b-galactosidase activity)", "setting": "[1]", "value": "hits"}, {"measurement": "inhibition of the interaction between MHV M and MYO5B+D", "setting": "[2]", "value": "more equivocal effects"}]}
{"molecule": "O=C(O)Cc1ccccc1Nc1c(Cl)cccc1Cl", "note": "[Diclofenac]", "values": [{"measurement": "identified as hit in initial yeast 2-hybrid screen (loss of b-galactosidase activity)", "setting": "[1]; 10 μM, 24 hours", "value": "hits"}, {"measurement": "inhibition of the interaction between MHV M and MYO5B+D", "setting": "[2]", "value": "more equivocal effects"}]}
{"molecule": "Amiodorone", "values": [{"measurement": "identified as hit in initial yeast 2-hybrid screen (loss of b-galactosidase activity)", "setting": "[1]; 10 μM, 24 hours", "value": "hits"}, {"measurement": "inhibition of the interaction between MHV M and MYO5B+D", "setting": "[2]", "value": "showed inhibition"}]}
{"molecule": "B1", "values": [{"measurement": "binding result", "setting": "[3]", "value": "binds"}]}
